Results from patent US8461077B2 (priority 2007, dated 2013).
Where two headings read alike, the source gives them in different places.

Experiments:
Phytophthora infestans [1] = format: cell-based; settings: single active substance, microtiter plate, day 7, 405 nm
Septoria tritici = assay: Microtiter test against the Septoria leaf spot pathogen (Septtr); format: cell-based; settings: single active substance, microtiter plate, day 7, 405 nm
Plasmopara viticola = assay: Greenhouse: activity against downy mildew of grapevine; format: in vivo; settings: single active substance, grapevine leaves sprayed 1 day before inoculation
Method: (§1) The active substances, separately or individually, were prepared as a stock solution, using 25 mg of active substance, which was made up to 10 ml with a mixture of acetone and/or DMSO and the emulsifier Uniperol® EL (wetter based on ethoxylated alkylphenols, with emulsifying and disputing activity) in the volumetric solvent/emulsifier ratio of 99 to 1. Then, the mixtures were made up to 100 ml with water. This stock solution was diluted with the above-described solvent/emulsifier/water mixture to give the active substance concentration stated below. As an alternative, the active substances were used as a commercially available ready mix and made up to the active substance concentration stated with water.
(§2) The visually determined values for the percentage of affected leaf area were converted into efficacies as % of the untreated control:
(§3) The efficacy (E) is calculated as follows, using Abbot's formula: E=(1−α/β)·100 • α corresponds to the fungal disease level of the treated plants in % and • β corresponds to the fungal disease level of the untreated (control) plants in %
(§4) At an efficacy of 0 the disease level of the treated plants corresponds to that of the untreated control plants; at an efficacy of 100, the treated plants are not diseased.
(§5) The expected efficacies for active substance combinations were determined using the Colby formula (Colby, S. R. (Calculating synergistic and antagonistic responses of herbicide Combinations”, Weeds, 15, p. 20-22, 1967) and compared with the observed efficacies.
(§6) Colby Formula: E=x+y−x·y/100 • E expected efficacy, expressed in % of the untreated control, when employing the mixture of the active substances A and B at the concentrations a and b • x efficacy, expressed in % of the untreated control, when employing active substance A at concentration a • y efficacy, expressed in % of the untreated control, when employing active substance B at concentration b
Leaves of pot-grown grapevines were sprayed to runoff point with aqueous suspension at the active substance concentration stated below. On the next day, the abaxial sides of the leaves were inoculated with an aqueous sporangia suspension of Plasmopara viticola. Then, the grapevines were placed first for 24 hours into a water-vapor-saturated chamber at 24° C. and then for 5 days in the greenhouse at temperatures of between 20 and 30° C. After this time, the plants were returned into a humid chamber for 16 hours in order to accelerate the eruption of the sporangiophores. Then, the extent of the disease development on the abaxial sides of the leaves was determined visually.

Botrytis cinerea = assay: Greenhouse: 1-day protective activity against gray mold on capsicum leaves; format: in vivo; settings: single active substance, protective 1 day, rated after 5 days
Method: as §1, §2, §3, §4, §5, §6
Capsicum seedlings were allowed to develop 2-3 leaves properly and were then sprayed to runoff point with an aqueous suspension of the active substance concentration stated below. On the next day, the treated plants were inoculated with a spore suspension of Botrytis cinerea in a 2% strength Biomalz solution. Thereafter, the test plants were placed into a controlled-environment cabinet at 22 to 24° C. in the dark and with high atmospheric humidity. After 5 days, it was possible to visually determine the extent of the fungal disease level on the leaves in %.

Phytophthora infestans [2] = format: in vivo; settings: single active substance, tomato, protective spray, rated after 6 days
Puccinia recondita [3] = assay: Greenhouse: protective activity against leaf rust of wheat; format: in vivo; settings: single active substance
Method: as §1, §2
(§7) The efficacy (E) is calculated as follows, using Abbot's formula: E=(1−α/β)·100 • α corresponds to the fungal disease level of the treated plants in % and • β corresponds to the fungal disease level of the untreated (control) plants in % […]
(§8) The expected efficacies for active substance combinations were determined using the Colby formula (Colby, S. R. (Calculating synergistic and antagonistic responses of herbicide Combinations”, Weeds, 15, p. 20-22, 1967) and compared with the observed efficacies. […]

Puccinia recondita [4] = assay: Greenhouse: curative activity against leaf rust of wheat; format: in vivo; settings: single active substance
Method: as §1, §2, §7, §8

Phakopsora pachyrhizi = assay: Greenhouse: curative activity against soybean rust; format: in vivo; settings: single active substance
Method: as §1, §2, §7, §8

Pyrenophora teres = assay: Greenhouse: 1-day protective activity against barley net blotch disease; format: in vivo, Pyrenophora [syn. Drechslera] teres; settings: single active substance, protective 1 day, rated after 6 days
Method: as §1, §2, §7, §8

[5] = 0.063 ppm, efficacy as % of untreated control (Abbot)

CCC/C(=N\OCC)C1=C(O)CC(C2CCCSC2)CC1=O (stereo not drawn) [Cycloxydim (I.Ba), cycloxydim, reference compound]
Observed effect (%) (Phytophthora infestans [1]; 1 ppm): 9%
Observed effect (%) (Phytophthora infestans [1]; 4 ppm): 5%
Observed effect (%) (Phytophthora infestans [1]; 16 ppm): 13%
Observed effect (%) (Septoria tritici; 63 ppm): 39%
Observed effect (%) (Plasmopara viticola; 0.063 ppm): 0%

COC[C@H](C)N(C(=O)CCl)c1c(C)csc1C [Dimethenamid-P (I.Ea)]
Observed effect (%) (Plasmopara viticola; 0.016 ppm): 0%

COCC(C)N(C(=O)CCl)c1c(C)csc1C (stereo not drawn) [Dimetheneamid-P (I.Ea), dimethenamid-P, reference compound]
Observed effect (%) (Botrytis cinerea; 0.25 ppm): 0%
Observed effect (%) (Phytophthora infestans [2]; [5]): 22%

CP(=O)(O)CCC(N)C(=O)O (stereo not drawn) [Glufosinate (I.Ab)]
Observed effect (%) (Phytophthora infestans [1]; 1 ppm): 3%
Observed effect (%) (Phytophthora infestans [1]; 4 ppm): 12%
Observed effect (%) (Phytophthora infestans [1]; 16 ppm): 20%
Observed effect (%) (Plasmopara viticola; 0.063 ppm): 0%
Observed effect (%) (Plasmopara viticola; 0.25 ppm): 0%

O=C(O)CNCP(=O)(O)O [Glyphosate (I.Aa), glyphosate, reference compound]
Observed effect (%) (Phytophthora infestans [1]; 1 ppm): 4%
Observed effect (%) (Phytophthora infestans [1]; 4 ppm): 1%
Observed effect (%) (Phytophthora infestans [1]; 16 ppm): 13%
Observed effect (%) (Puccinia recondita [3]; 0.063 ppm): 0%
Observed effect (%) (Puccinia recondita [4]; 0.063 ppm, curative (sprayed 1 day after inoculation)): 0%
Observed effect (%) (Plasmopara viticola; 0.016 ppm): 0%

Cc1nc2ncnn2c(N)c1-c1ccc(Cl)c(Cl)c1 [II-1, 6-(3,4-dichlorophenyl)-5-methyl-[1,2,4]triazolo[1,5-a]pyrimidin-7-ylamine]
Observed effect (%) (Septoria tritici; 16 ppm): 12%

CCCCCCCCc1nc2ncnn2c(N)c1CC [II-6, 6-ethyl-5-octyl-[1,2,4]triazolo[1,5-a]pyrimidin-7-ylamine]
Observed effect (%) (Botrytis cinerea; 16 ppm): 0%
Observed effect (%) (Phytophthora infestans [1]; 16 ppm): 25%
Observed effect (%) (Puccinia recondita [3]; 4 ppm): 0%
Observed effect (%) (Puccinia recondita [4]; 4 ppm, curative): 0%
Observed effect (%) (Plasmopara viticola; 16 ppm): 44%

CCCCCCCCc1c(CC)nc2ncnn2c1N [II-7, 5-ethyl-6-octyl-[1,2,4]triazolo[1,5-a]pyrimidin-7-ylamine]
Observed effect (%) (Phytophthora infestans [1]; 1 ppm): 7%
Observed effect (%) (Plasmopara viticola; 1 ppm): 0%
Observed effect (%) (Plasmopara viticola; 4 ppm): 22%

CCc1nc2ncnn2c(N)c1CCC(C)CC(C)(C)C (stereo not drawn) [II-8, 5-ethyl-6-(3,5,5-trimethylhexyl)-[1,2,4]triazolo[1,5-a]pyrimidin-7-ylamine]
Observed effect (%) (Phytophthora infestans [2]; 4 ppm): 22%
Observed effect (%) (Phytophthora infestans [1]; 4 ppm): 1%
Observed effect (%) (Plasmopara viticola; 1 ppm): 33%

CCCCCCCCc1c(COC)nc2ncnn2c1N [II-10, 5-methoxymethyl-6-octyl-[1,2,4]triazolo[1,5-a]pyrimidin-7-ylamine]
Observed effect (%) (Botrytis cinerea; 16 ppm): 0%
Observed effect (%) (Phytophthora infestans [2]; 16 ppm): 0%
Observed effect (%) (Phakopsora pachyrhizi; 16 ppm, curative): 0%
Observed effect (%) (Phytophthora infestans [1]; 0.25 ppm): 10%
Observed effect (%) (Pyrenophora teres; 16 ppm): 0%
Observed effect (%) (Plasmopara viticola; 4 ppm): 0%
Observed effect (%) (Plasmopara viticola; 16 ppm): 44%

Cc1cnc(C2=NC(=O)C(C)(C(C)C)N2)c(C(=O)O)c1 (stereo not drawn) [Imazapic (I.Cd)]
Observed effect (%) (Phytophthora infestans [1]; 1 ppm): 4%
Observed effect (%) (Phytophthora infestans [1]; 4 ppm): 4%
Observed effect (%) (Phytophthora infestans [1]; 16 ppm): 12%
Observed effect (%) (Plasmopara viticola; 0.063 ppm): 0%
Observed effect (%) (Plasmopara viticola; 0.25 ppm): 0%

CC(C)C1(C)N=C(c2ncccc2C(=O)O)NC1=O (stereo not drawn) [Imazapyr (I.Ca)]
Observed effect (%) (Phytophthora infestans [1]; 1 ppm): 1%
Observed effect (%) (Phytophthora infestans [1]; 4 ppm): 9%
Observed effect (%) (Phytophthora infestans [1]; 16 ppm): 8%
Observed effect (%) (Plasmopara viticola; 0.063 ppm): 0%

CC(C)C1(C)N=C(c2nc3ccccc3cc2C(=O)O)NC1=O (stereo not drawn) [Imazaquin (I.Cc)]
Observed effect (%) (Phytophthora infestans [1]; 1 ppm): 8%
Observed effect (%) (Phytophthora infestans [1]; 4 ppm): 11%
Observed effect (%) (Phytophthora infestans [1]; 16 ppm): 23%
Observed effect (%) (Plasmopara viticola; 0.25 ppm): 0%

CCc1cnc(C2=NC(C)(C(C)C)C(=O)N2)c(C(=O)O)c1 (stereo not drawn) [Imazethapyr (I.Cb)]
Observed effect (%) (Phytophthora infestans [1]; 1 ppm): 3%
Observed effect (%) (Phytophthora infestans [1]; 4 ppm): 8%
Observed effect (%) (Phytophthora infestans [1]; 16 ppm): 9%
Observed effect (%) (Plasmopara viticola; 0.25 ppm): 0%

C[n+]1ccc(-c2cc[n+](C)cc2)cc1 [Paraquat (I.Fa), paraquat, reference compound]
Observed effect (%) (Botrytis cinerea; 0.25 ppm): 0%
Observed effect (%) (Phytophthora infestans [2]; [5]): 0%
Observed effect (%) (Phytophthora infestans [2]; 0.25 ppm): 0%
Observed effect (%) (Phakopsora pachyrhizi; 0.25 ppm, curative (sprayed 1 day after inoculation)): 0%
Observed effect (%) (Phytophthora infestans [1]; 1 ppm): 4%
Observed effect (%) (Phytophthora infestans [1]; 4 ppm): 5%
Observed effect (%) (Phytophthora infestans [1]; 16 ppm): 7%

CCC(CC)Nc1c([N+](=O)[O-])cc(C)c(C)c1[N+](=O)[O-] [Pendimethalin (I.Da)]
Observed effect (%) (Phytophthora infestans [1]; 1 ppm): 7%
Observed effect (%) (Phytophthora infestans [1]; 4 ppm): 16%
Observed effect (%) (Phytophthora infestans [1]; 16 ppm): 29%
Observed effect (%) (Phytophthora infestans [1]; 63 ppm): 38%
Observed effect (%) (Plasmopara viticola; 0.25 ppm): 0%

CCC/C(=N\OCC)C1=C(O)CC(CC(C)SCC)CC1=O (stereo not drawn) [Sethoxydim (I.Bc), sethoxydim, reference compound]
Observed effect (%) (Phytophthora infestans [1]; 1 ppm): 2%
Observed effect (%) (Phytophthora infestans [1]; 4 ppm): 5%
Observed effect (%) (Phytophthora infestans [1]; 16 ppm): 14%
Observed effect (%) (Pyrenophora teres; 0.25 ppm): 0%
Observed effect (%) (Plasmopara viticola; 0.25 ppm): 0%
